Test results taken from ChEMBL document CHEMBL1833873, “Design and synthesis of C35-fluorinated solamins and their growth inhibitory activities against human cancer cell lines” (2011).

Legend:
Assay type in all cases: functional
HCT-15 = assay: Cytotoxicity against human HCT15 cells after 48 hrs by sulforhodamine B assay; details: HCT-15, 48 h
DU-145 = assay: Cytotoxicity against human DU145 cells after 48 hrs by sulforhodamine B assay; details: DU-145, 48 h
MDA-MB-231 = assay: Cytotoxicity against human MDA-MB-231 cells after 48 hrs by sulforhodamine B assay; details: MDA-MB-231, 48 h
[1] = Cytotoxicity against human RXF631L cells after 48 hrs by sulforhodamine B assay; details: RXF 631, 48 h
MKN-7 = assay: Cytotoxicity against human MKN7 cells after 48 hrs by sulforhodamine B assay; details: MKN-7, 48 h
St-4 = assay: Cytotoxicity against human St-4 cells after 48 hrs by sulforhodamine B assay; details: St-4, 48 h
MKN-45 = assay: Cytotoxicity against human MKN45 cells after 48 hrs by sulforhodamine B assay; details: MKN-45, 48 h
SNB-75 = assay: Cytotoxicity against human SNB75 cells after 48 hrs by sulforhodamine B assay; details: SNB-75, 48 h
OVCAR-5 = assay: Cytotoxicity against human OVCAR5 cells after 48 hrs by sulforhodamine B assay; details: OVCAR-5, 48 h
SK-OV-3 = assay: Cytotoxicity against human SKOV3 cells after 48 hrs by sulforhodamine B assay; details: SK-OV-3, 48 h
A549 = assay: Cytotoxicity against human A549 cells after 48 hrs by sulforhodamine B assay; details: A549, 48 h
DMS-273 = assay: Cytotoxicity against human DMS273 cells after 48 hrs by sulforhodamine B assay; details: DMS-273, 48 h
[2] = Cytotoxicity against human HBC5 cells after 48 hrs by sulforhodamine B assay; details: HBC5, 48 h
OVCAR-4 = assay: Cytotoxicity against human OVCAR4 cells after 48 hrs by sulforhodamine B assay; details: OVCAR-4, 48 h
MKN-74 = assay: Cytotoxicity against human MKN74 cells after 48 hrs by sulforhodamine B assay; details: MKN-74, 48 h
NCI-H226 = assay: Cytotoxicity against human NCI-H226 cells after 48 hrs by sulforhodamine B assay; details: NCI-H226, 48 h
OVCAR-3 = assay: Cytotoxicity against human OVCAR3 cells after 48 hrs by sulforhodamine B assay; details: OVCAR-3, 48 h
MKN-28 = assay: Cytotoxicity against human MKN28 cells after 48 hrs by sulforhodamine B assay; details: MKN-28, 48 h
MCF7 = assay: Cytotoxicity against human MCF7 cells after 48 hrs by sulforhodamine B assay; details: MCF7, 48 h
SF-268 = assay: Cytotoxicity against human SF268 cells after 48 hrs by sulforhodamine B assay; details: SF-268, 48 h
SF-295 = assay: Cytotoxicity against human SF295 cells after 48 hrs by sulforhodamine B assay; details: SF-295, 48 h
HT-29 = assay: Cytotoxicity against human HT-29 cells after 48 hrs by sulforhodamine B assay; details: HT-29, 48 h
SNB-78 = assay: Cytotoxicity against human SNB78 cells after 48 hrs by sulforhodamine B assay; details: SNB-78, 48 h
SF-539 = assay: Cytotoxicity against human SF539 cells after 48 hrs by sulforhodamine B assay; details: SF-539, 48 h
PC-3 = assay: Cytotoxicity against human PC3 cells after 48 hrs by sulforhodamine B assay; details: PC-3, 48 h
[3] = Cytotoxicity against human BSY1 cells after 48 hrs by sulforhodamine B assay; details: BSY-1, 48 h
[4] = Cytotoxicity against human HBC4 cells after 48 hrs by sulforhodamine B assay; details: HBC4, 48 h
[5] = Cytotoxicity against human MKN1 cells after 48 hrs by sulforhodamine B assay; details: MKN-1, 48 h
DMS-114 = assay: Cytotoxicity against human DMS114 cells after 48 hrs by sulforhodamine B assay; details: DMS-114, 48 h
NCI-H23 = assay: Cytotoxicity against human NCI-H23 cells after 48 hrs by sulforhodamine B assay; details: NCI-H23, 48 h
NCI-H460 = assay: Cytotoxicity against human NCI-H460 cells after 48 hrs by sulforhodamine B assay; details: NCI-H460, 48 h
HCC 2998 = assay: Cytotoxicity against human HCC2998 cells after 48 hrs by sulforhodamine B assay; details: HCC 2998, 48 h
LOX IMVI = assay: Cytotoxicity against human LOXIMVI cells after 48 hrs by sulforhodamine B assay
U-251 = assay: Cytotoxicity against human U251 cells after 48 hrs by sulforhodamine B assay; details: U-251, 48 h
ACHN = assay: Cytotoxicity against human ACHN cells after 48 hrs by sulforhodamine B assay
NCI-H522 = assay: Cytotoxicity against human NCI-H522 cells after 48 hrs by sulforhodamine B assay; details: NCI-H522, 48 h
HCT-116 = assay: Cytotoxicity against human HCT116 cells after 48 hrs by sulforhodamine B assay; details: HCT-116, 48 h
KM12 = assay: Cytotoxicity against human KM12 cells after 48 hrs by sulforhodamine B assay; details: KM12, 48 h
OVCAR-8 = assay: Cytotoxicity against human OVCAR8 cells after 48 hrs by sulforhodamine B assay; details: OVCAR-8, 48 h

SMILES | GI50 (HCT-15) [µM] | GI50 (DU-145) [µM] | GI50 (MDA-MB-231) [µM] | GI50 [1] [µM] | GI50 (MKN-7) [µM] | GI50 (St-4) [µM] | GI50 (MKN-45) [µM] | GI50 (SNB-75) [µM] | GI50 (OVCAR-5) [µM] | GI50 (SK-OV-3) [µM] | GI50 (A549) [µM] | GI50 (DMS-273) [µM] | GI50 [2] [µM] | GI50 (OVCAR-4) [µM] | GI50 (MKN-74) [µM] | GI50 (NCI-H226) [µM] | GI50 (OVCAR-3) [µM] | GI50 (MKN-28) [µM] | GI50 (MCF7) [µM] | GI50 (SF-268) [µM] | other results
CCCCCCCCCCCC[C@@H](O)[C@H]1CC[C@H]([C@H](O)CCCCCCCCCCCCC2=C[C@H](C(F)(F)F)OC2=O)O1 | > 100 | > 100 | > 100 | > 100 | 89 | > 100 | > 100 | > 100 | > 100 | > 100 | > 100 | > 100 | > 100 | > 100 | > 100 | 88 | > 100 | > 100 | 80 | > 100 | GI50 (SF-295): 72 µM; GI50 (HT-29): > 100 µM; GI50 (SNB-78): > 100 µM; GI50 (SF-539): > 100 µM; GI50 (PC-3): > 100 µM; GI50 [3]: > 100 µM; GI50 [4]: > 100 µM; GI50 [5]: > 100 µM; GI50 (DMS-114): 52 µM; GI50 (NCI-H23): > 100 µM; GI50 (NCI-H460): > 100 µM; GI50 (HCC 2998): > 100 µM; GI50 (LOX IMVI): > 100 µM; GI50 (U-251): > 100 µM; GI50 (ACHN): > 100 µM; GI50 (NCI-H522): 53 µM; GI50 (HCT-116): > 100 µM; GI50 (KM12): > 100 µM; GI50 (OVCAR-8): > 100 µM
CCCCCCCCCCCC[C@@H](O)[C@H]1CC[C@H]([C@H](O)CCCCCCCCCCCCC2=C[C@H](C(F)F)OC2=O)O1 | 82 | > 100 | > 100 | > 100 | 19 | > 100 | > 100 | > 100 | > 100 | > 100 | > 100 | 16 | 11 | 87 | 57 | 63 | > 100 | 96 | 61 | > 100 | GI50 (SF-295): 44 µM; GI50 (HT-29): > 100 µM; GI50 (SNB-78): > 100 µM; GI50 (SF-539): 79 µM; GI50 (PC-3): 60 µM; GI50 [3]: > 100 µM; GI50 [4]: 32 µM; GI50 [5]: 67 µM; GI50 (DMS-114): 24 µM; GI50 (NCI-H23): 75 µM; GI50 (NCI-H460): > 100 µM; GI50 (HCC 2998): > 100 µM; GI50 (LOX IMVI): 15 µM; GI50 (U-251): > 100 µM; GI50 (ACHN): > 100 µM; GI50 (NCI-H522): 24 µM; GI50 (HCT-116): > 100 µM; GI50 (KM12): > 100 µM; GI50 (OVCAR-8): 85 µM
CCCCCCCCCCCC[C@@H](O)[C@H]1CC[C@H]([C@H](O)CCCCCCCCCCCCC2=C[C@H](CF)OC2=O)O1 | > 100 | > 100 | 59 | > 100 | 19 | 37 | 76 | 63 | > 100 | > 100 | 76 | 48 | 32 | > 100 | 40 | 51 | > 100 | 7.8 | 45 | > 100 | GI50 (SF-295): 36 µM; GI50 (HT-29): 63 µM; GI50 (SNB-78): > 100 µM; GI50 (SF-539): > 100 µM; GI50 (PC-3): 24 µM; GI50 [3]: 60 µM; GI50 [4]: > 100 µM; GI50 [5]: 58 µM; GI50 (DMS-114): 6.9 µM; GI50 (NCI-H23): 12 µM; GI50 (NCI-H460): 79 µM; GI50 (HCC 2998): > 100 µM; GI50 (LOX IMVI): > 100 µM; GI50 (U-251): > 100 µM; GI50 (ACHN): > 100 µM; GI50 (NCI-H522): 15 µM; GI50 (HCT-116): 16 µM; GI50 (KM12): > 100 µM; GI50 (OVCAR-8): 16 µM
CCCCCCCCCCCC[C@@H](O)[C@H]1CC[C@H]([C@H](O)CCCCCCCCCCCCC2=C[C@H](C)OC2=O)O1 [REL-SOLAMIN] | > 100 | > 100 | > 100 | > 100 | 13 | > 100 | > 100 | > 100 | > 100 | > 100 | > 100 | > 100 | > 100 | > 100 | > 100 | > 100 | > 100 | 14 | 71 | > 100 | GI50 (SF-295): 40 µM; GI50 (HT-29): > 100 µM; GI50 (SNB-78): > 100 µM; GI50 (SF-539): > 100 µM; GI50 (PC-3): > 100 µM; GI50 [3]: > 100 µM; GI50 [4]: > 100 µM; GI50 [5]: > 100 µM; GI50 (DMS-114): 4.3 µM; GI50 (NCI-H23): 73 µM; GI50 (NCI-H460): > 100 µM; GI50 (HCC 2998): > 100 µM; GI50 (LOX IMVI): 29 µM; GI50 (U-251): > 100 µM; GI50 (ACHN): > 100 µM; GI50 (NCI-H522): 58 µM; GI50 (HCT-116): > 100 µM; GI50 (KM12): > 100 µM; GI50 (OVCAR-8): > 100 µM
